Blank lines part the entries; values can stand above or below the compound they belong to.
Columns and labels:
[1] = biological target: T1, Ubiquitin carboxy-terminal hydrolase L1 (UCHL1) (Homo sapiens, UniProt P09936); assay: fluorescence polarization assay with Ub-Lys-TAMRA, […] min preincubation; covalent adduct by LC-ESI-MS; cellular HTRF; type: biochemical
T1 construct: recombinant UCHL1
T1 sequence (P09936 1-220): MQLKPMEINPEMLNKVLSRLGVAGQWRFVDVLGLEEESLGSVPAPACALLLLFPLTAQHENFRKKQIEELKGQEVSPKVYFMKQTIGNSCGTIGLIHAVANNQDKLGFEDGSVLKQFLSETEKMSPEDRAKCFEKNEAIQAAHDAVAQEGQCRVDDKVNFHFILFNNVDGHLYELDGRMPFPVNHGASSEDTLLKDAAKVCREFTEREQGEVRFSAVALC

ALDH2 [2] = biological target: T2, ALDH2 (Homo sapiens, UniProt P05091); assay: competitive ABPP against MT16-205 in HEK293 cells (LFQ proteomics); type: cell-based
T2 sequence (P05091 18-517): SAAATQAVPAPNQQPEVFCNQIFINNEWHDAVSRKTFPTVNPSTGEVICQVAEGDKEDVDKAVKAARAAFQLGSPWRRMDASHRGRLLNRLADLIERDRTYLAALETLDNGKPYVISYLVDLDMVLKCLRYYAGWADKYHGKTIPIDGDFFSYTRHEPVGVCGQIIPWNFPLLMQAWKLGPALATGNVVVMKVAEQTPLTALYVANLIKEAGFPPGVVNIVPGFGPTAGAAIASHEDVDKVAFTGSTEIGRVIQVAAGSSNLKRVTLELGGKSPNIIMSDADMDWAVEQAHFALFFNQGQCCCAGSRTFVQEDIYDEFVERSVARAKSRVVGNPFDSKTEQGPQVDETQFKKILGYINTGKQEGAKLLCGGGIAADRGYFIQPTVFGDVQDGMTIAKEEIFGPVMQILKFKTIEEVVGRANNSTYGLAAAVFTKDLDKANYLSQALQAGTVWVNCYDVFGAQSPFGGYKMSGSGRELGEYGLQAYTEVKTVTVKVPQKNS

ALDH9A1 = ALDH9A1 (Homo sapiens, UniProt P49189); assay: ABPP in HEK293 cells: streptavidin pulldown immunoblot and LFQ chemical proteomics; type: cell-based
ALDH9A1, sequence (P49189 whole entry): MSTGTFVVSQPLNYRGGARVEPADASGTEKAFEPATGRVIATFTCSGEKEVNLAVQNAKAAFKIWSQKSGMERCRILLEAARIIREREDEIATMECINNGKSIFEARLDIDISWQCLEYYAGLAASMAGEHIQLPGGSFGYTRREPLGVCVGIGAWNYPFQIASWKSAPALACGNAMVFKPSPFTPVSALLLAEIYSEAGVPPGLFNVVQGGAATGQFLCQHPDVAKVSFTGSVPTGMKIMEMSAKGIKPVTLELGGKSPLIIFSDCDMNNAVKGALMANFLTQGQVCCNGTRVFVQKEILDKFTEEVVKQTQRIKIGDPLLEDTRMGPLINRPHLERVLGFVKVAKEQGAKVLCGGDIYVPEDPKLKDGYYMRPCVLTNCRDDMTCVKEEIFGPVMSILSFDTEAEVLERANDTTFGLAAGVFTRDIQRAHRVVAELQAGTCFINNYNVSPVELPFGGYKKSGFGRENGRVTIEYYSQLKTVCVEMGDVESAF

ALDH2 [3] = biological target: T2, ALDH2; assay: ABPP in HEK293 cells, LFQ chemical proteomics, competed by MT16-001; type: cell-based
[4] = biological target: T1, Ubiquitin carboxy-terminal hydrolase L1 (UCHL1); assay: fluorescence polarization assay with Ub-Lys-TAMRA, […] min preincubation; covalent adduct by LC-ESI-MS; ABPP pulldown; type: biochemical
USP30 = biological target: T3, USP30 (Homo sapiens, UniProt Q70CQ3); assay: DUB selectivity panel at […] (FP / FI in vitro assays); type: biochemical
T3 sequence (Q70CQ3 1-517): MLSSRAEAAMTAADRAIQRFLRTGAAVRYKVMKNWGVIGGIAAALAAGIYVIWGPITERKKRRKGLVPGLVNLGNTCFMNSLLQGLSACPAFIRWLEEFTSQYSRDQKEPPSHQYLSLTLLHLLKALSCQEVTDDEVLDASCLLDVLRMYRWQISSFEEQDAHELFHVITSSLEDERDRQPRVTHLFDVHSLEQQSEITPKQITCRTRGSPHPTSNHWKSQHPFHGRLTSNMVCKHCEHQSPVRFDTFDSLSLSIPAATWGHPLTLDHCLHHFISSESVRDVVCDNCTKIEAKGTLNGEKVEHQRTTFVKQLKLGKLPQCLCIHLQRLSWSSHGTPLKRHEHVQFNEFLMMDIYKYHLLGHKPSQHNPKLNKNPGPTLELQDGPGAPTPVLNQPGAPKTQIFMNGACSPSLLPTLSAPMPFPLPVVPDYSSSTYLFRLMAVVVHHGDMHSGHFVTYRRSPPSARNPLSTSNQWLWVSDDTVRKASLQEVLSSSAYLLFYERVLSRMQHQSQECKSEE

IC50 [1]: 580 ± 25 nM
SMILES: N#CN1CC[C@H](C(=O)Nc2ncc(-c3ccccc3)s2)C1 [MT16-001]
competitive ABPP against MT16-205 in HEK293 cells (LFQ proteomics) (ALDH2 [2]): Four targets, ALDH2, ALDH9A1, GATD3A and UCHL1, responded to parent compound MT16-001 in a concentration dependent manner.

IC50 [4]: 600 ± 78 nM
SMILES: C#Cc1ccc(-c2cnc(NC(=O)[C@H]3CCN(C#N)C3)s2)cc1 [MT16-205]
ABPP in HEK293 cells: streptavidin pulldown immunoblot and LFQ chemical proteomi (ALDH9A1): also ALDH9A1, which was one of the off-targets of MT16-205 in HEK293 cells
ABPP in HEK293 cells, LFQ chemical proteomics, competed by MT16-001 (ALDH2 [3]): ALDH2, ALDH9A1, and GATD3A were confirmed as the genuine targets of MT16-001, MT16-205 and MT16-009

inhibition at 1 µM (USP30): 50%
SMILES: N#CN1CC[C@H](C(=O)Nc2nc(-c3ccccc3)cs2)C1 [MT16-009]

Reference: publication PMC8597422, “Activity-based protein profiling reveals deubiquitinase and aldehyde dehydrogenase targets of a cyanopyrrolidine probe” (RSC Medicinal Chemistry, 2021)
